Like-named read-outs stand apart in the source and are kept apart here.
How the values were obtained:
HiB5 cells = settings: for O.D. %: control = 100
Experimental: Since HiB5 cells derived from white rat embryonic hippocampus were prepared by retroviral infection of temperature sensitive SV40 large T antigen, they divided at […], but the cell division stopped at 39° C. (body temperature of rat). […] Cell culture medium was prepared by adding a mixture of 10% FBS (fetal bovine serum), penicillin/streptomycin, glutamine and sodium pyruvate (0.11 g/L) to DMEM. On differentiating at 39° C., another cell culture medium was prepared by adding pyruvate to a serum-free medium (N2, containing DMEM/F12, insulin, transferrin, Putreseine and BSA; Botten Stein & Sato., 1979). PC12 cells and SH-SY5Y cells were cultured in DMEM supplemented with 10% FBS. In order to differentiate the cells, NGF or retinoic acid was added to a serum-free medium.
Cell injuries under condition of serum deprivation-induced stress and oxidative stress were measured by MTT assay. For MTT assay, Cells were seeded into N2 medium in an amount of 7.5×10^3 cells, and then a neurotoxin or a nerve growth factor was added thereto to differentiate the cells and then 0.1 volume of 4 mg/ml MTT was further added. The mixture was stored at 37° C. for 3-4 hours. After 100 μl of solubilization buffer was added to the mixture and then stored for 24 hours, O.D. values were measured by ELISA assay.
HiB5 cell line used in this experiment was prepared by infecting primary cultured cells of temperature sensitive SV40 large T antigen in rat embryonic hippocampus (embryonic day 16) using retroviral vectors. The HiB5 cell line was divided at the permissive temperature (32° C.), but the cell division stopped at the non-permissive temperature (body temperature of rat: 39° C.). A small number of GABAegic neurons differentiated in the rat embryonic hippocampus (embryonic day 16), and glutamatergic pyramidal cell precursors still divided, some of which penetrated into dentate gyrus regions through dentate migration pathways in embryonic day 18 to differentiate into glutamatergic granule cells (Altman J., Bayer. S. A. (1990a) Prolonged sojourn of developing pyramidal cells in the intermediate zone of the hippocampus and their settling in the stratum pyramidale. J Comp Neurol. 301, 343-64.; Altman J., Das G. D. (1965) Post-natal origin of microneurones in the rat brain, Nature. 28, 953-956.). When cells stop their cell-division and start to differentiate in vivo, apoptosis occurs.
In order to evaluate the protective effect of berberine against apoptosis and the effect of increasing cell survival, HiB5 cells were cultured under conditions for initiation of differentiation. At this time, the culture was treated with berberine at various concentrations (50 ng/ml˜6 μg/ml). The protective effect of berberine against apoptosis was measured by MTT assay. A positive control group was treated with bFGF to block apoptosis, increase cell survival and induce the differentiation into nerve cells.
Since HiB5 neuronal stem cells undergo cell death during the differentiation, the cells were considered as a negative control group. The percentage of O.D. values is determined for the groups treated with bFGF and berberine, respectively.

[1] = system: pyramidal nerve cells in the hippocampal CA1 region; assay: Forebrain ischemia induced by 4-vessel occlusion (4-VO), viable CA1 cells; format: in vivo, Wister male white rats; settings: berberine i.p. 0 and 90 minutes after ischemia induction, 1 week after; sham 308±6.6, saline 28±3.8
Experimental: A 4-VO model was prepared by a modified method of Pulsinelli, et al (Ann. Neurol. 11, 491-498(1982)). Wister male white rats weighing about […] were anesthetized with 5% isoflurane contained in a mixture of nitrogen and oxygen (70:30), and then surgery was performed under anesthetization while maintaining the concentration of isoflurane at 1.5%.
First, the throat region was incised, and then silicone tube rings were inserted into common carotid arteries to perform reperfusion after ischemia induction. Upon inducing ischemia, in order to block blood circulation through microvessels, a thread was penetrated so that the trachea, esophagus, external jugular veins and common carotid arteries of the rat were positioned to the front, and cervical and paravertebral muscles of the rat were positioned to the back. Thereafter, the wounds were sutured with operating clips.
Next, the head of the rat was fixed on a stereotaxic apparatus to operate on the occiput, and then the tail was fixed so that it descended downwardly at an angle of 30°. […]
While body temperatures of the rats were measured at intervals of 30 minutes for 2 hours, and thereafter measured at intervals of 1 hour for 3 hours after ischemia induction, the rats were maintained at 37±0.5° C. using a temperature-controlling heater. The body temperature was measured by inserting a probe into the rectum to a depth of 6 cm. […]

For `COc1ccc2cc3[n+](cc2c1OC)CCc1cc2c(cc1-3)OCO2` [Berberine, 7,8,13,13a-tetradihydro-9,10-dimethoxy-2,3-(methylenedioxy) berbinium], the O.D. % (HiB5 cells; 50 ng) was 99%, the O.D. % (HiB5 cells; 100 ng) was 103% and the O.D. % (HiB5 cells; 250 ng) was 111%. The O.D. % (HiB5 cells; 500 ng) was 140%, the O.D. % (HiB5 cells; 700 ng) was 154% and the O.D. % (HiB5 cells; 1 μg) was 153%. It also gave an O.D. % (HiB5 cells; 1.5 μg) of 162%, an O.D. % (HiB5 cells; 2 μg) of 173% and an O.D. % (HiB5 cells; 2.5 μg) of 185%. For the same compound, the O.D. % (HiB5 cells; 3 μg) was 190%, the O.D. % (HiB5 cells; 4 μg) was 189% and the O.D. % (HiB5 cells; 5 μg) was 191%. For the same compound, the O.D. % (HiB5 cells; 6 μg) was 190%, the “cell survival rate / protective effect against apoptosis, increase over control” value (HiB5 cells; HiB5 under differentiation conditions, MTT) was “about two times” and the cell survival rate (HiB5 cells; berberine 250˜500 ng/ml) was “somewhat increased”. For the same compound, the cytotoxicity (HiB5 cells; berberine up to 6 μg/ml) was “no cytotoxicity” and the “density of viable cells in hippocampal CA1” value [1] was 257±9.6 cell/mm^2.

Source: patent publication US20040097534A1, “Composition for the protection and regeneration of nerve cells containing berberine derivatives” (EUGENBIO INC., priority 2001, published 2004)
